Test [1] has as its target PIM (PIM-1, PIM-2, and/or PIM-3). In words: PIM-1, PIM-2 and PIM-3 inhibition, biochemical chemiluminescence assays (Kinase Glo, IC50 determination). To be noted: Table 1 activity class; PIM refers to PIM-1, PIM-2, and/or PIM-3; read-out: PIM IC50 (Activity B).
For test [2], the target named is CK2 (Homo sapiens, UniProt P68400). In words: CK2 inhibition, biochemical chemiluminescence holoenzyme assay (Kinase Glo, IC50 determination). The conditions noted are these: Table 1 activity class; symbol given only if active; read-out: CK2 IC50 (Activity C). The essentials: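 Holoenzyme CK2 assay; compounds pre-incubated with substrate and enzyme, then reacted 150 min at 24-27° C. Remaining ATP measured as luminescence with Kinase Glo, and IC50 derived from the signal.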
(In general: In Kinase-Glo more light means more ATP remaining.)

For test [3], the target named is CDC7 (Homo sapiens, UniProt O00311). The test is described as follows: CDC7 inhibition, biochemical chemiluminescence assay (Kinase Glo, IC50 determination). A digest of the protocol: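 CDC7 enzyme preincubated with compound 10 min at ambient temperature, then ATP mix in Tris Base added; reaction 90 min at 24-27 °C. Remaining ATP quantified by Kinase Glo luminescence to give IC50.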

The mark [4] stands for this setting: Table 1 activity class, symbol given only if active, read-out: CDC7 IC50 (Activity A).
Setting [5] is: compounds in Table 1, read-out: CDC7 IC50 value.

Like-named read-outs stand apart in the source and are kept apart here.

The IC50 is the point on the concentration scale where inhibition reaches its midpoint.

CDC7, sequence (O00311 whole entry): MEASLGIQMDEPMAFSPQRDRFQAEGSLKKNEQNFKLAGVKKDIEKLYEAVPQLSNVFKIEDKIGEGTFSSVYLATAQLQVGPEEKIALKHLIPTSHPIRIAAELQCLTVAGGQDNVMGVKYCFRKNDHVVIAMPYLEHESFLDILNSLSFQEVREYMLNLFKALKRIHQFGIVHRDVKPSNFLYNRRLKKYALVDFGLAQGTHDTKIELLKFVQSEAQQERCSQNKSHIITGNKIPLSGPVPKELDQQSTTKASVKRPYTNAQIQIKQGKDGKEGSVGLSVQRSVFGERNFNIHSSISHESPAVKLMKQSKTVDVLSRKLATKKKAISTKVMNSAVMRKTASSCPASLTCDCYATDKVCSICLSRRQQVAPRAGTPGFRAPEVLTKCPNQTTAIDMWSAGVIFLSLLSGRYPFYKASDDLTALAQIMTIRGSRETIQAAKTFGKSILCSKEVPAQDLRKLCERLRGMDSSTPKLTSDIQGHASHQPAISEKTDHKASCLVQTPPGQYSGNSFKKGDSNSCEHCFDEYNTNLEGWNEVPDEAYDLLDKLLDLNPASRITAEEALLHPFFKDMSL
CDC7, sequence (Q9UBU7 whole entry partner): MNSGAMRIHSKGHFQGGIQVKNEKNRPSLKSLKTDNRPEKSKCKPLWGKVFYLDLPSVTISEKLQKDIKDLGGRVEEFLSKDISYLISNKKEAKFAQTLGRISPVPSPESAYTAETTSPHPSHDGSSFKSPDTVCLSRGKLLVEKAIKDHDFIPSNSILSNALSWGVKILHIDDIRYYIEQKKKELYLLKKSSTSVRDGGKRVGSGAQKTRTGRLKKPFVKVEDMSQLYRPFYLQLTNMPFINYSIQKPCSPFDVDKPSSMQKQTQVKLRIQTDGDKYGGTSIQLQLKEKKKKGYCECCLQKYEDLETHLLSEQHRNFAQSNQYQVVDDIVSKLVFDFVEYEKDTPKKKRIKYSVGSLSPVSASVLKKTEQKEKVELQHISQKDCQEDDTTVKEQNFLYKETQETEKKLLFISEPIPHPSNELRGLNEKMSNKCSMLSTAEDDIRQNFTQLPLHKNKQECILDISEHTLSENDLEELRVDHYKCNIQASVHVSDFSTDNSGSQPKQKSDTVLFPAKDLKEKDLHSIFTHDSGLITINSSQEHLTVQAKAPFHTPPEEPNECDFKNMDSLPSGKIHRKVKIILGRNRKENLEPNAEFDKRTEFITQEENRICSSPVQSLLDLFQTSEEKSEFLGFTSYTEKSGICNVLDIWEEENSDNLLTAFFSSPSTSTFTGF
CK2, sequence (P68400 whole entry): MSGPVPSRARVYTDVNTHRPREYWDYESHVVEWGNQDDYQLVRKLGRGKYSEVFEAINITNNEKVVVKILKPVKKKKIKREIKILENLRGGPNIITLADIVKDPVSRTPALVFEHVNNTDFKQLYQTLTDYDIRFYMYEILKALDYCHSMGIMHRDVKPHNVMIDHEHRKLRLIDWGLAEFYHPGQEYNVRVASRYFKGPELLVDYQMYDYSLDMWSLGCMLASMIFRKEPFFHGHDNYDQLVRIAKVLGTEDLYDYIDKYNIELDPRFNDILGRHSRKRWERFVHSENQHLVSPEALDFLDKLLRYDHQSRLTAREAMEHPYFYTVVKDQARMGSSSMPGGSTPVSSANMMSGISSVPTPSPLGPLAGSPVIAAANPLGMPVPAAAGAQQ
CK2, sequence (P67870 whole entry partner): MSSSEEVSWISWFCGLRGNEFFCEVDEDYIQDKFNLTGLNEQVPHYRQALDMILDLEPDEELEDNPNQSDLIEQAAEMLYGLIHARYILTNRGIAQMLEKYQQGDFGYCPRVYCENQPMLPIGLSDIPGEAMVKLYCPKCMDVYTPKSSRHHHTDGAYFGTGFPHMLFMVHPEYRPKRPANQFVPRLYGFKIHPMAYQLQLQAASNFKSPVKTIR

As to `O=C(Nc1ccc(-c2nc3c(oc4ccc(Br)cc43)c(=O)[nH]2)c(Cl)c1)c1cc(Cl)nc(Cl)c1` [Compound 294, N-[4-(8-bromo-4-oxo-3,4-dihydro[1]benzofuro[3,2-d]pyrimidin-2-yl)-3-chlorophenyl]-2,6-dichloropyridine-4-carboxamide], the IC50 in test [1], in test [2] and in test [3] (setting [4]) was less than 10 µM in each case.

In the case of `NCc1cccc(-c2nc3c(oc4ccc(Br)cc43)c(=O)[nH]2)c1` [Compound 302, 2-[3-(Aminomethyl)phenyl]-8-bromo[1]benzofuro[3,2-d]pyrimidin-4(3H)-one], the IC50 in test [1], in test [2] and in test [3] (setting [4]) was less than 10 µM throughout.

With `O=c1[nH]c(C[C@@H]2CCCNC2)nc2c1oc1ccc(Br)cc12` [Compound 305, 8-bromo-2-[(3S)-piperidin-3-ylmethyl][1]benzofuro[3,2-d]pyrimidin-4(3H)-one], the IC50 in test [1], in test [2] and in test [3] (setting [4]) was less than 10 µM in each case.

As to `O=c1[nH]c(CN2CC[C@@H](F)C2)nc2c1oc1ccc(Br)cc12` [Compound 307, 8-bromo-2-{[(3R)-3-fluoropyrrolidin-1-yl]methyl}[1]benzofuro[3,2-d]pyrimidin-4(3H)-one], the IC50 in test [1] is less than 10 µM; in test [2] it was less than 10 µM; in test [3] (setting [4]), less than 10 µM; in test [3] (setting [5]), less than 0.1 µM.

Turning to `O=c1[nH]c(CN2CC[C@H](F)C2)nc2c1oc1ccc(Br)cc12` [Compound 308, 8-bromo-2-{[(3S)-3-fluoropyrrolidin-1-yl]methyl}[1]benzofuro[3,2-d]pyrimidin-4(3H)-one], the IC50 in test [1] was less than 10 µM; in test [2], less than 10 µM; in test [3] (setting [4]), less than 10 µM; in test [3] (setting [5]), less than 0.1 µM.

As to `O=c1[nH]c(CN2CCC3(CCNCC3)CC2)nc2c1oc1ccc(Br)cc12` [Compound 311, 8-bromo-2-(3,9-diazaspiro[5.5]undec-3-ylmethyl)[1]benzofuro[3,2-d]pyrimidin-4(3H)-one], the IC50 in test [1], in test [2] and in test [3] (setting [4]) was less than 10 µM each time.

Regarding `Cc1cnc(C(=O)Nc2ccc(-c3nc4c(oc5ccc(Br)cc54)c(=O)[nH]3)c(Cl)c2)cn1` [Compound 312, N-[4-(8-bromo-4-oxo-3,4-dihydro[1]benzofuro[3,2-d]pyrimidin-2-yl)-3-chlorophenyl]-5-methylpyrazine-2-carboxamide], the half-maximal inhibitory concentration (IC50) in test [1], in test [2] and in test [3] (setting [4]) was less than 10 µM each time.

As to `O=C(Nc1ccc(-c2nc3c(oc4ccc(Br)cc43)c(=O)[nH]2)c(Cl)c1)C1CCOC1` (centres unmarked) [Compound 313, N-[4-(8-bromo-4-oxo-3,4-dihydro[1]benzofuro[3,2-d]pyrimidin-2-yl)-3-chlorophenyl]tetrahydrofuran-3-carboxamide], the IC50 in test [1], in test [2] and in test [3] (setting [4]) was less than 10 µM in each case.

For the compound `O=c1[nH]c(C[C@H]2CCCNC2)nc2c1oc1ccc(Br)cc12` [Compound 315, 8-bromo-2-[(3R)-piperidin-3-ylmethyl][1]benzofuro[3,2-d]pyrimidin-4(3H)-one], the IC50 in test [1], in test [2] and in test [3] (setting [4]) was less than 10 µM each time.

Turning to `O=c1[nH]c(CN2CCCC(F)C2)nc2c1oc1ccc(Br)cc12` (centres unmarked) [Compound 317, 8-bromo-2-[(3-fluoropiperidin-1-yl)methyl][1]benzofuro[3,2-d]pyrimidin-4(3H)-one], the IC50 in test [1] is less than 10 µM; in test [2], less than 10 µM; in test [3] (setting [4]), less than 10 µM; in test [3] (setting [5]) it was less than 0.1 µM.

Take `COCC(=O)Nc1ccc(-c2nc3c(oc4ccc(Br)cc43)c(=O)[nH]2)c(Cl)c1` [Compound 319, N-[4-(8-bromo-4-oxo-3,4-dihydro[1]benzofuro[3,2-d]pyrimidin-2-yl)-3-chlorophenyl]-2-(methyloxy)acetamide]: the half-maximal inhibitory concentration (IC50) in test [1], in test [2] and in test [3] (setting [4]) was less than 10 µM each time.

For the compound `COC(=O)Nc1ccc(-c2nc3c(oc4ccc(Br)cc43)c(=O)[nH]2)c(Cl)c1` [Compound 320, methyl [4-(8-bromo-4-oxo-3,4-dihydro[1]benzofuro[3,2-d]pyrimidin-2-yl)-3-chlorophenyl]carbamate], the IC50 in test [1], in test [2] and in test [3] (setting [4]) was less than 10 µM in each case.

With `O=C(Nc1ccc(-c2nc3c(oc4ccc(Br)cc43)c(=O)[nH]2)c(Cl)c1)c1ccco1` [Compound 321, N-[4-(8-bromo-4-oxo-3,4-dihydro[1]benzofuro[3,2-d]pyrimidin-2-yl)-3-chlorophenyl]furan-2-carboxamide], the IC50 in test [1], in test [2] and in test [3] (setting [4]) was less than 10 µM throughout.

With `O=C(Cc1cccnc1)Nc1ccc(-c2nc3c(oc4ccc(Br)cc43)c(=O)[nH]2)c(Cl)c1` [Compound 322, N-[4-(8-bromo-4-oxo-3,4-dihydro[1]benzofuro[3,2-d]pyrimidin-2-yl)-3-chlorophenyl]-2-pyridin-3-ylacetamide], the IC50 in test [1], in test [2] and in test [3] (setting [4]) was less than 10 µM throughout.

Take `O=C(Nc1ccc(-c2nc3c(oc4ccc(Br)cc43)c(=O)[nH]2)c(Cl)c1)c1cnccn1` [Compound 323, N-[4-(8-bromo-4-oxo-3,4-dihydro[1]benzofuro[3,2-d]pyrimidin-2-yl)-3-chlorophenyl]pyrazine-2-carboxamide]: the IC50 in test [1], in test [2] and in test [3] (setting [4]) was less than 10 µM each time.

Take `O=C(Nc1ccc(-c2nc3c(oc4ccc(Br)cc43)c(=O)[nH]2)c(Cl)c1)c1ccno1` [Compound 324, N-[4-(8-bromo-4-oxo-3,4-dihydro[1]benzofuro[3,2-d]pyrimidin-2-yl)-3-chlorophenyl]isoxazole-5-carboxamide]: the IC50 in test [1], in test [2] and in test [3] (setting [4]) was less than 10 µM each time.

With `O=C(Nc1ccc(-c2nc3c(oc4ccc(Br)cc43)c(=O)[nH]2)c(Cl)c1)c1cncnc1` [Compound 328, N-[4-(8-bromo-4-oxo-3,4-dihydro[1]benzofuro[3,2-d]pyrimidin-2-yl)-3-chlorophenyl]pyrimidine-5-carboxamide], the IC50 in test [1], in test [2] and in test [3] (setting [4]) was less than 10 µM in each case.

Take `O=c1[nH]c(CN2CC=CC2)nc2c1oc1ccc(Br)cc12` [Compound 331, 8-bromo-2-(3-pyrrolin-1-ylmethyl)[1]benzofuro[3,2-d]pyrimidin-4(3H)-one]: the IC50 in test [1] was less than 10 µM; in test [2], less than 10 µM; in test [3] (setting [4]), less than 10 µM; in test [3] (setting [5]), less than 0.1 µM.

As for `O=c1[nH]c(CN2C[C@H](O)[C@@H](O)C2)nc2c1oc1ccc(Br)cc12` [Compound 333, 8-bromo-2-(((3 S,4S)-3,4-dihydroxypyrrolidin-1-yl)methyl)benzofuro[3,2-d]pyrimidin-4(3H)-one], the IC50 is less than 10 µM in test [1], less than 10 µM in test [2], less than 10 µM in test [3] (setting [4]) and less than 0.1 µM in test [3] (setting [5]).

These data come from patent US20090247559A1 (Exelixis, Inc., priority 2007, published 2009).
